Laboratory results from US20250326769A1, “HETEROAROMATIC MACROCYCLIC ETHER CHEMOTHERAPEUTIC AGENTS” (Nuvalent, Inc., priority 2022, published 2025).

Assays:
[1] = molecular target: Ba/F3 EML4-ALK v1 I1171N/D1203N (Homo sapiens (Human), UniProt Q9HC35+Q9UM73, D1203N/I1171N); assay: Ba/F3 cell proliferation assay, EML4-ALK v1 I1171N/D1203N; assay type: cell-based; conditions: for Selectivity for Ba/F3 EML4-ALK v1 I1171N-D1203N IC50 over Ba/F3 ETV6-TRKB IC50 / ETV6-TRKB / EML4-ALK v1 I1171N/D1203N: ratio of Ba/F3 IC50 values, TRKB selectivity; for Selectivity for Ba/F3 EML4-ALK v1 I1171N-D1203N IC50 over Ba/F3 ETV6-TRKB IC50: Table 6 bins; for IC50: Ba/F3 stable cells, 72 hours, CellTiter-Glo
Chain of Ba/F3 EML4-ALK v1 I1171N/D1203N (Q9UM73 other isoform, or with tags, fused parts or gaps I1171N/D1203N): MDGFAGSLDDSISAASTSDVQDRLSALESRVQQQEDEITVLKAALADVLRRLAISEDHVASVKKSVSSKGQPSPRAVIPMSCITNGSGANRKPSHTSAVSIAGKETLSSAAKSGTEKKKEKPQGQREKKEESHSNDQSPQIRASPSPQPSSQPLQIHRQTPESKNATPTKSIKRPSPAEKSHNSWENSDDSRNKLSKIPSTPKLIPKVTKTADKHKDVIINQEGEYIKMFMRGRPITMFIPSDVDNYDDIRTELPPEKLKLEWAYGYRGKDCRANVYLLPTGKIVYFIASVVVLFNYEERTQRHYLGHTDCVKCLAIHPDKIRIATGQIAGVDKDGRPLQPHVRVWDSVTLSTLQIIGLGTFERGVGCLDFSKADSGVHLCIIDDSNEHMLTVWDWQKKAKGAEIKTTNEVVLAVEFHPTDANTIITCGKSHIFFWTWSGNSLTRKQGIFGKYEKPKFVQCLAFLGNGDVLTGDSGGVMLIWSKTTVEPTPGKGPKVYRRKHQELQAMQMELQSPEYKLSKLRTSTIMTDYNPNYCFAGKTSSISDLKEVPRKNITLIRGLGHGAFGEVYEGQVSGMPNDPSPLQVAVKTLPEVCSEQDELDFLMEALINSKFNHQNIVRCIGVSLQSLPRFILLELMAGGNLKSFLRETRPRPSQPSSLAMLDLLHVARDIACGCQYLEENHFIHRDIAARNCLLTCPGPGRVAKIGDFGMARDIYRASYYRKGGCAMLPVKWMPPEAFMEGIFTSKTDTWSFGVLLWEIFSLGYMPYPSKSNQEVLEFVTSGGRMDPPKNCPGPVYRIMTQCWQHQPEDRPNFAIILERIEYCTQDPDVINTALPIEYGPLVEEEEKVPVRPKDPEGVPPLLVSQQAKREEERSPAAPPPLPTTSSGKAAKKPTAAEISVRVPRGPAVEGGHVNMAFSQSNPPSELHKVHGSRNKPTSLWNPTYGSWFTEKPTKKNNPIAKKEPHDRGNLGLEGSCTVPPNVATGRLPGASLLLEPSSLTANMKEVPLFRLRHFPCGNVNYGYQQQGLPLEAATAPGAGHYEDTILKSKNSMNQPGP
From the text: (§1) Genes encoding EML4-ALK v1 (variant 1), EML4-ALK v1 G1202R, EML4-ALK v1 I1171IN, EML4-ALK v1 D1203N, EML4-ALK v1 I1171N/D1203N, and ETV6-TRKB were synthesized at GeneRay, cloned into the retroviral construct pMSCV-puro (Biovector), and packaged into retroviral particles. The virus was used to infect Ba/F3 cells (RIKEN) at multiplicity of infection=1 for 1 day. Infected cells were rescued in media (RPMI-1640 with 10% fetal bovine serum and 1% streptomycin and penicillin) supplemented with mouse IL-3 (10 ng/mL) for 2 days, and stable cell lines were selected by IL-3 withdrawal and puromycin (0.8 μg/mL) for 7 days. Monoclones were selected by single-cell dilution in IL-3-free medium containing puromycin (0.8 μg/mL). Transformation of desired genes was confirmed by Sanger sequencing and western blot using the following antibodies: ALK (CST #3633) and pan-TRK (Abcam #76291).
(§2) Stable cells were plated in a 384-well plate. Test compounds were then added in a 3-fold dilution series and incubated for 72 hours. CellTiter-Glo reagent (Promega) was added. Luminescence was measured on a plate reader. Half-maximal inhibitory concentration (ICso) was calculated from percent inhibition and inhibitor concentration using four-parameter logistic regression. Compound potency can be interpreted by binning IC50 values: bin A for high potency, 0.1 nM IC50<50 nM; bin B for medium potency, 50 nM<IC50<500 nM; and bin C for low potency, IC50>500 nM. […] Exemplary data is given in Table 4 (nd is not determined).
(§3) Ba/F3 proliferation is driven by the transduced oncogenes in the same way that cancer cell proliferation in humans is driven by the expression of equivalent oncogenes.
TRKB selectivity was calculated by dividing a compound's TRKB potency by its primary target potency (e.g., ETV6-TRKB IC50/EML4-ALK v1 IC50). Compound selectivity can be interpreted by binning ratio values: bin A for very high selectivity, ratio≥30-fold; bin B for high selectivity, ratio≥10-fold but<30; bin C for moderate selectivity, ratio≥1 but<10; and bin D for low selectivity, ratio<1. […] (nd=not determined).
Additional exemplified compounds were also tested against ALK-INDN and TRKB. The TRKB selectivity was calculated by dividing a compound's TRKB potency by its primary target potency (e.g., ETV6-TRKB IC50/EMIL4-ALK I1171N-D1203N v1 IC50). Compound selectivity can be interpreted by binning ratio values: bin AA for the selectivity with the ratio≥30-fold; bin BB for the selectivity with the ratio≥10-fold but<30; bin CC for the selectivity with the ratio≥5 but<10; bin DD for the selectivity with the ratio≥1 but<5; and bin EE for the selectivity with the ratio<1.

Ba/F3 ETV6-TRKB = Ba/F3 ETV6-TRKB (Homo sapiens, UniProt Q16620); assay: Ba/F3 cell proliferation assay, ETV6-TRKB; assay type: cell-based; conditions: Ba/F3 stable cells, 72 hours, CellTiter-Glo; read-out: ETV6-TRKB IC50
Chain of Ba/F3 ETV6-TRKB (Q16620 32-822 limits assumed, change not shown): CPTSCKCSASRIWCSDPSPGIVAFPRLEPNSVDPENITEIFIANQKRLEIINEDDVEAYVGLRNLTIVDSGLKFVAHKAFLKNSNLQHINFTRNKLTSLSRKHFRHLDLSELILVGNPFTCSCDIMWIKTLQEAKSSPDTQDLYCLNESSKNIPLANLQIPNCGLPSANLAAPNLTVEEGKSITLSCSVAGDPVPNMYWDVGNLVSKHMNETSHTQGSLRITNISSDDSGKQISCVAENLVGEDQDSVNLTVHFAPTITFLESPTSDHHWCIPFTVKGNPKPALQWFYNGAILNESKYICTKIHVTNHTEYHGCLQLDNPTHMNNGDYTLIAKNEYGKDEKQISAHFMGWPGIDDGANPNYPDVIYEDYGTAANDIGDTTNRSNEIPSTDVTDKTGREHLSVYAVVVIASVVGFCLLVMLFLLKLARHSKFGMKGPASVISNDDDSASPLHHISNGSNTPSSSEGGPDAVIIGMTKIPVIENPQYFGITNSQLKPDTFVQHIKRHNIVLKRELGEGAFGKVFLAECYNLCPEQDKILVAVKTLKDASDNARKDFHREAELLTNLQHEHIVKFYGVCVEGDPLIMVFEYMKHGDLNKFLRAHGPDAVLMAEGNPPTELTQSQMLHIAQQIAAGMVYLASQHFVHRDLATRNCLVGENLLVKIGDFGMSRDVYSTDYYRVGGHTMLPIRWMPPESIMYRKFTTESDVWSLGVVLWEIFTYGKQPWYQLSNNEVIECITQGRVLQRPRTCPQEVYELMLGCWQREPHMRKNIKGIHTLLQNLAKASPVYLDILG
From the text: as §1, §2, §3

Compound | Selectivity for Ba/F3 EML4-ALK v1 I1171N-D1203N IC50 over Ba/F3 ETV6-TRKB IC50 [1] | IC50 [1] | ETV6-TRKB / EML4-ALK v1 I1171N/D1203N [1] | IC50 (Ba/F3 ETV6-TRKB)
C[C@H]1Oc2cc(cnc2N)-c2c(C#N)nn(C)c2Cc2cccnc2-c2ccc(F)cc21 [Example E8, reference compound] | DD (bin DD for the selectivity with the ratio≥1 but<5) |  |  | 
C[C@H]1Oc2cc(cnc2N)-c2c(C#N)nn(C)c2C(O)c2cn(C)nc2-c2c(F)cc(F)cc21 (stereo partly drawn) [Example 79, (19R)-22-amino-14,16-difluoro-7-hydroxy-5,10-dimethyl-19-methyl-20-oxa-4,5,10,11,23-pentaazapentacyclo[19.3.1.0^2,^6.0^8,^12.0^13,^18]pentacosa-1(24),2(6),3,8,11,13,15,17,21(25),22-decaene-3-carbonitrile] |  | 50 to 500 nM | C (bin C for moderate selectivity, ratio≥1 but<10) | > 500 nM
Cc1nc2c(s1)Cc1c(c(C#N)nn1C)-c1cnc(N)c(c1)O[C@H](C)c1cc(F)ccc1-2 [Example E6, reference compound] | EE (bin EE for the selectivity with the ratio<1) |  |  | 
CC(C)n1nc2c(c1C#N)-c1cnc(N)c(c1)O[C@H](C)c1cc(F)ccc1-c1ncccc1C2 [Example E5, reference compound] | CC (bin CC for the selectivity with the ratio≥5 but<10) |  |  | 
C[C@H]1Oc2cc(cnc2N)-c2c(nn(C)c2C#N)Oc2cccnc2-c2ccc(F)cc21 [Example 59, (R)-23-amino-17-fluoro-4-methyl-20-methyl-7,21-dioxa-4,5,12,24-tetraazapentacyclo[20.3.1.0^2,^6.0^8,^13.0^14,^19]hexacosa-1(25),2,5,8(13),9,11,14,16,18,22(26),23-undecaene-3-carbonitrile] |  | 0.1 to 50 nM | B (bin B for high selectivity, ratio≥10-fold but<30) | 50 to 500 nM
C[C@H]1Oc2cc(cnc2N)-c2c(CC3CC3)nn(C(=O)N(C)C)c2Cc2cn(C)nc2-c2c(F)cc(F)cc21 [Example 23, (19R)-22-amino-3-(cyclopropylmethyl)-14,16-difluoro-N,N,10,19-tetramethyl-20-oxa-4,5,10,11,23-pentaazapentacyclo[19.3.1.0^2,6.0^8,12.0^13,18]pentacosa-1(24),2(6),3,8,11,13,15,17,21(25),22-decaene-5-carboxamide] |  | 50 to 500 nM | A (bin A for very high selectivity, ratio≥30-fold) | > 500 nM
C[C@H]1Oc2cc(cnc2N)-c2c(cnn2CC2CC2)Cc2cccnc2-c2ccc(F)cc21 [Example E11, reference compound] | DD (bin DD for the selectivity with the ratio≥1 but<5) |  |  | 
Cc1cc2n(n1)-c1ccc(F)cc1[C@@H](C)Oc1cc(cnc1N)-c1c(c(C(=O)N(C)C)nn1C1CCC1)C2 [Example 67, N,N-dimethyl-(R)-22-amino-3-cyclobutyl-16-fluoro-10,19-dimethyl-20-oxa-3,4,11,12,23-pentaazapentacyclo[19.3.1.0^2,^6.0^8,^12.0^13,^18]pentacosa-1(24),2(6),4,8,10,13,15,17,21(25),22-decaene-5-carboxamide] |  | 0.1 to 50 nM |  | 50 to 500 nM
CCn1nc2c(c1C#N)-c1cnc(N)c(c1)O[C@H](C)c1cc(F)ccc1-c1ncccc1C2 [Example E12, reference compound] | CC (bin CC for the selectivity with the ratio≥5 but<10) |  |  | 
C[C@H]1Oc2cc(cnc2N)-c2c(nn(C)c2C#N)Oc2cccnc2-c2c(F)cc(F)cc21 [Example 61, (R)-23-amino-15,17-difluoro-4-methyl-20-methyl-7,21-dioxa-4,5,12,24-tetraazapentacyclo[20.3.1.0^2,^6.0^8,^13.0^14,^19]hexacosa-1(25),2,5,8(13),9,11,14,16,18,22(26),23-undecaene-3-carbonitrile] |  | 0.1 to 50 nM |  | 50 to 500 nM
C[C@H]1Oc2cc(cnc2N)-c2c(C#N)nn(C)c2C(=O)c2cn(C)nc2-c2c(F)cc(F)cc21 [Example 28, (R)-22-amino-14,16-difluoro-5,10-dimethyl-19-methyl-7-oxo-20-oxa-4,5,10,11,23-pentaazapentacyclo[19.3.1.0^2,^6.0^8,^12.0^13,^18]pentacosa-1(24),2(6),3,8,11,13,15,17,21(25),22-decaene-3-carbonitrile] |  | 50 to 500 nM | A (bin A for very high selectivity, ratio≥30-fold) | > 500 nM
(7S,20R)-23-amino-17-fluoro-7-hydroxy-4-methyl-20-methyl-21-oxa-4,5,12,24-tetraazapentacyclo[20.3.1.0^2,6.0^8,13.0^14,19]hexacosa-1(25),2,5,8(13),9,11,14,16,18,22(26),23-undecaene-3-carbonitrile [Example 78] |  | 50 to 500 nM | B (bin B for high selectivity, ratio≥10-fold but<30) | > 500 nM
C[C@H]1Oc2cc(cnc2N)-c2c(nn(C)c2C#N)Cc2cn(C)nc2-c2c(F)cc(F)cc21 [Example E13, reference compound] | BB (bin BB for the selectivity with the ratio≥10-fold but<30) |  |  | 
C[C@H]1Oc2cc(cnc2N)-c2c(nn(C)c2C#N)Cc2cccnc2-c2c(F)cc(F)cc21 [Example E1, reference compound] | BB (bin BB for the selectivity with the ratio≥10-fold but<30) |  |  | 
(R)-22-amino-14,16-difluoro-4-methyl-10,19-dimethyl-7-oxo-20-oxa-9-thia-4,5,11,23-tetraazapentacyclo[19.3.1.0^2,6.0^8,12.0^13,18]pentacosa-1(24),2,5,8(12),10,13,15,17,21(25),22-decaene-3-carbonitrile [Example 80] |  | 0.1 to 50 nM | B (bin B for high selectivity, ratio≥10-fold but<30) | 50 to 500 nM
Cc1cc2n(n1)-c1ccc(F)cc1[C@@H](C)Oc1cc(cnc1N)-c1c(C#N)nn(C)c1C2 [Example E3, reference compound] | EE (bin EE for the selectivity with the ratio<1) |  |  | 
C[C@H]1Oc2cc(cnc2N)-c2c(C#N)nn(C)c2Cc2cccnc2-c2c(F)cc(F)cc21 [Example E2, reference compound] | DD (bin DD for the selectivity with the ratio≥1 but<5) |  |  | 
CCn1ncc2c1-c1cnc(N)c(c1)O[C@H](C)c1cc(F)ccc1-c1nn(C)cc1C2 [Example E4, reference compound] | EE (bin EE for the selectivity with the ratio<1) |  |  | 
CCn1ncc2c1-c1cnc(N)c(c1)O[C@H](C)c1cc(F)ccc1-c1ncccc1C2 [Example E10, reference compound] | EE (bin EE for the selectivity with the ratio<1) |  |  | 
C[C@H]1Oc2cc(cnc2N)-c2c(nn(C)c2C#N)Cc2cccnc2-c2ccc(F)cc21 [Example E7, reference compound] | CC (bin CC for the selectivity with the ratio≥5 but<10) |  |  | 
